Assays:
Assay type in all cases: in vivo
[1] = test system: giant foxtail (Setaria faberi); assay: Test G Pre-Emergence Protocol; conditions: Setaria faberi, pre-emergence, 312 h, evaluated after 13 days; for pest or weed control at 15.625 g/ha: 15.625 g ai/ha; for pest or weed control at 15.625 g/ha / pest or weed control at 250 g/ha: read-out: Foxtail, Giant damage rating (100=total damage to plant; 0=no damage to plant); for pest or weed control at 62.5 g/ha: 62.5 g ai/ha, 100=total damage to plant, 0=no damage to plant, read-out: Foxtail, Giant damage rating; for pest or weed control at 250 g/ha: 250 g ai/ha
Summary of the method: (§1)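 Pots of seeds in standard soil were grown for one day in a glasshouse (24/16 °C day/night, 14 h light, 65% humidity), then sprayed with compound in acetone/water 50:50 with 0.5% Tween 20 at 15.625, 62.5 or 250 g/ha. Damage was scored after 13 days on a 0 (none) to 100 (total) scale.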

[2] = test system: ivy-leaved morning glory (Ipomoea hederacea); assay: Test G Pre-Emergence Protocol; conditions: Ipomoea, pre-emergence, 312 h, evaluated after 13 days; for pest or weed control at 15.625 g/ha: 15.625 g ai/ha; for pest or weed control at 15.625 g/ha / pest or weed control at 250 g/ha: read-out: Morningglory, Ivy-leaved damage rating (100=total damage to plant; 0=no damage to plant); for pest or weed control at 62.5 g/ha: 62.5 g ai/ha, 100=total damage to plant, 0=no damage to plant, read-out: Morningglory, Ivy-leaved damage rating; for pest or weed control at 250 g/ha: 250 g ai/ha
Summary of the method: as §1

corn (Zea mays) [3] = assay: Test G Pre-Emergence Protocol; conditions: Zea mays, pre-emergence, 312 h, evaluated after 13 days; for plant injury at 15.625 g/ha: 15.625 g ai/ha; for plant injury at 15.625 g/ha / plant injury at 250 g/ha: read-out: Corn damage rating (100=total damage to plant; 0=no damage to plant); for plant injury at 62.5 g/ha: 62.5 g ai/ha, 100=total damage to plant, 0=no damage to plant, read-out: Corn damage rating; for plant injury at 250 g/ha: 250 g ai/ha
Summary of the method: as §1

[4] = test system: redroot pigweed (Amaranthus retroflexus); assay: Test G Pre-Emergence Protocol; conditions: Amaranthus retroflexus, pre-emergence, 312 h, evaluated after 13 days; for pest or weed control at 15.625 g/ha: 15.625 g ai/ha; for pest or weed control at 15.625 g/ha / pest or weed control at 250 g/ha: read-out: Pigweed, Redroot damage rating (100=total damage to plant; 0=no damage to plant); for pest or weed control at 62.5 g/ha: 62.5 g ai/ha, 100=total damage to plant, 0=no damage to plant, read-out: Pigweed, Redroot damage rating; for pest or weed control at 250 g/ha: 250 g ai/ha
Summary of the method: as §1

[5] = test system: barnyardgrass (Echinochloa crus-galli); assay: Test G Pre-Emergence Protocol; conditions: Echinochloa crus-galli, pre-emergence, 312 h, evaluated after 13 days; for pest or weed control at 15.625 g/ha: 15.625 g ai/ha; for pest or weed control at 15.625 g/ha / pest or weed control at 250 g/ha: read-out: Barnyardgrass damage rating (100=total damage to plant; 0=no damage to plant); for pest or weed control at 62.5 g/ha: 62.5 g ai/ha, 100=total damage to plant, 0=no damage to plant, read-out: Barnyardgrass damage rating; for pest or weed control at 250 g/ha: 250 g ai/ha
Summary of the method: as §1

[6] = test system: velvetleaf (Abutilon theophrasti); assay: Test G Pre-Emergence Protocol; conditions: Abutilon theophrasti, pre-emergence, 312 h, evaluated after 13 days; for pest or weed control at 15.625 g/ha: 15.625 g ai/ha; for pest or weed control at 15.625 g/ha / pest or weed control at 250 g/ha: read-out: Velvetleaf damage rating (100=total damage to plant; 0=no damage to plant); for pest or weed control at 62.5 g/ha: 62.5 g ai/ha, 100=total damage to plant, 0=no damage to plant, read-out: Velvetleaf damage rating; for pest or weed control at 250 g/ha: 250 g ai/ha
Summary of the method: as §1

[7] = test system: giant foxtail (Setaria faberi); assay: Test G Post-Emergence Protocol; conditions: Setaria faberi, post-emergence, 312 h, read-out: Foxtail, Giant damage rating; for pest or weed control at 15.625 g/ha: 15.625 g ai/ha, evaluated after 13 days (100=total damage to plant; 0=no damage to plant); for pest or weed control at 62.5 g/ha: 62.5 g ai/ha; for pest or weed control at 62.5 g/ha / pest or weed control at 250 g/ha: evaluated after 13 days, 100=total damage to plant, 0=no damage to plant; for pest or weed control at 250 g/ha: 250 g ai/ha
Summary of the method: (§2)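 Sow in soil; grow 8 d (24/16 °C, 14 h light, 65% humidity); spray 15.625/62.5/250 g/ha in acetone:water 50:50 + 0.5% Tween 20; grow on, water twice daily; score damage 0–100 at 13 d.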

[8] = test system: ivy-leaved morning glory (Ipomoea hederacea); assay: Test G Post-Emergence Protocol; conditions: Ipomoea, post-emergence, 312 h, read-out: Morningglory, Ivy-leaved damage rating; for pest or weed control at 15.625 g/ha: 15.625 g ai/ha, evaluated after 13 days (100=total damage to plant; 0=no damage to plant); for pest or weed control at 62.5 g/ha: 62.5 g ai/ha; for pest or weed control at 62.5 g/ha / pest or weed control at 250 g/ha: evaluated after 13 days, 100=total damage to plant, 0=no damage to plant; for pest or weed control at 250 g/ha: 250 g ai/ha
Summary of the method: as §2

corn (Zea mays) [9] = assay: Test G Post-Emergence Protocol; conditions: Zea mays, post-emergence, 312 h, read-out: Corn damage rating; for plant injury at 15.625 g/ha: 15.625 g ai/ha, evaluated after 13 days (100=total damage to plant; 0=no damage to plant); for plant injury at 62.5 g/ha: 62.5 g ai/ha; for plant injury at 62.5 g/ha / plant injury at 250 g/ha: evaluated after 13 days, 100=total damage to plant, 0=no damage to plant; for plant injury at 250 g/ha: 250 g ai/ha
Summary of the method: as §2

[10] = test system: redroot pigweed (Amaranthus retroflexus); assay: Test G Post-Emergence Protocol; conditions: Amaranthus retroflexus, post-emergence, 312 h, read-out: Pigweed, Redroot damage rating; for pest or weed control at 15.625 g/ha: 15.625 g ai/ha, evaluated after 13 days (100=total damage to plant; 0=no damage to plant); for pest or weed control at 62.5 g/ha: 62.5 g ai/ha; for pest or weed control at 62.5 g/ha / pest or weed control at 250 g/ha: evaluated after 13 days, 100=total damage to plant, 0=no damage to plant; for pest or weed control at 250 g/ha: 250 g ai/ha
Summary of the method: as §2

[11] = test system: barnyardgrass (Echinochloa crus-galli); assay: Test G Post-Emergence Protocol; conditions: Echinochloa crus-galli, post-emergence, 312 h, read-out: Barnyardgrass damage rating; for pest or weed control at 15.625 g/ha: 15.625 g ai/ha, evaluated after 13 days (100=total damage to plant; 0=no damage to plant); for pest or weed control at 62.5 g/ha: 62.5 g ai/ha; for pest or weed control at 62.5 g/ha / pest or weed control at 250 g/ha: evaluated after 13 days, 100=total damage to plant, 0=no damage to plant; for pest or weed control at 250 g/ha: 250 g ai/ha
Summary of the method: as §2

[12] = test system: velvetleaf (Abutilon theophrasti); assay: Test G Post-Emergence Protocol; conditions: Abutilon theophrasti, post-emergence, 312 h, read-out: Velvetleaf damage rating; for pest or weed control at 15.625 g/ha: 15.625 g ai/ha, evaluated after 13 days (100=total damage to plant; 0=no damage to plant); for pest or weed control at 62.5 g/ha: 62.5 g ai/ha; for pest or weed control at 62.5 g/ha / pest or weed control at 250 g/ha: evaluated after 13 days, 100=total damage to plant, 0=no damage to plant; for pest or weed control at 250 g/ha: 250 g ai/ha
Summary of the method: as §2

| Compound | pest or weed control at 15.625 g/ha [1] [%] | pest or weed control at 62.5 g/ha [1] [%] | pest or weed control at 250 g/ha [1] [%] | pest or weed control at 15.625 g/ha [2] [%] | pest or weed control at 62.5 g/ha [2] [%] | pest or weed control at 250 g/ha [2] [%] | plant injury at 15.625 g/ha (corn (Zea mays) [3]) [%] | plant injury at 62.5 g/ha (corn (Zea mays) [3]) [%] | plant injury at 250 g/ha (corn (Zea mays) [3]) [%] | pest or weed control at 15.625 g/ha [4] [%] | pest or weed control at 62.5 g/ha [4] [%] | pest or weed control at 250 g/ha [4] [%] | pest or weed control at 15.625 g/ha [5] [%] | pest or weed control at 62.5 g/ha [5] [%] | pest or weed control at 250 g/ha [5] [%] | pest or weed control at 15.625 g/ha [6] [%] | pest or weed control at 62.5 g/ha [6] [%] | pest or weed control at 250 g/ha [6] [%] | pest or weed control at 15.625 g/ha [7] [%] | pest or weed control at 62.5 g/ha [7] [%] | also measured |
| --- | --- | --- | --- | --- | --- | --- | --- | --- | --- | --- | --- | --- | --- | --- | --- | --- | --- | --- | --- | --- | --- |
| COc1cc(C)cc([C@@H]2CN(C)C(=O)[C@H]2C(=O)Nc2cccc(F)c2C)c1 (racemic) [Compound 1791] | 80 | 90 | 90 | 10 | 20 | 80 | 20 | 70 | 80 | 0 | 0 | 10 | 70 | 80 | 90 | 0 | 10 | 40 | 80 | 80 | pest or weed control at 250 g/ha [7]: 80%; pest or weed control at 15.625 g/ha [8]: 20%; pest or weed control at 62.5 g/ha [8]: 70%; pest or weed control at 250 g/ha [8]: 70%; plant injury at 15.625 g/ha (corn (Zea mays) [9]): 30%; plant injury at 62.5 g/ha (corn (Zea mays) [9]): 70%; plant injury at 250 g/ha (corn (Zea mays) [9]): 80%; pest or weed control at 15.625 g/ha [10]: 0%; pest or weed control at 62.5 g/ha [10]: 0%; pest or weed control at 250 g/ha [10]: 0%; pest or weed control at 15.625 g/ha [11]: 70%; pest or weed control at 62.5 g/ha [11]: 80%; pest or weed control at 250 g/ha [11]: 80%; pest or weed control at 15.625 g/ha [12]: 10%; pest or weed control at 62.5 g/ha [12]: 30%; pest or weed control at 250 g/ha [12]: 20% |
| COc1ccc([C@@H]2CN(C)C(=O)[C@H]2C(=O)Nc2cccc(F)c2C)cc1Cl (racemic) [Compound 1793] | 30 | 90 | 90 | 0 | 0 | 10 | 0 | 20 | 40 | 0 | 0 | 0 | 20 | 70 | 90 | 0 | 0 | 30 | 70 | 80 | pest or weed control at 250 g/ha [7]: 80%; pest or weed control at 15.625 g/ha [8]: 0%; pest or weed control at 62.5 g/ha [8]: 10%; pest or weed control at 250 g/ha [8]: 70%; plant injury at 15.625 g/ha (corn (Zea mays) [9]): 10%; plant injury at 62.5 g/ha (corn (Zea mays) [9]): 30%; plant injury at 250 g/ha (corn (Zea mays) [9]): 50%; pest or weed control at 15.625 g/ha [10]: 0%; pest or weed control at 62.5 g/ha [10]: 0%; pest or weed control at 250 g/ha [10]: 0%; pest or weed control at 15.625 g/ha [11]: 30%; pest or weed control at 62.5 g/ha [11]: 70%; pest or weed control at 250 g/ha [11]: 80%; pest or weed control at 15.625 g/ha [12]: 0%; pest or weed control at 62.5 g/ha [12]: 10%; pest or weed control at 250 g/ha [12]: 30% |
| CN1C[C@H](c2cc(C(F)(F)F)cc(C(F)(F)F)c2)[C@@H](C(=O)Nc2ccccc2S(C)(=O)=O)C1=O (racemic) [Compound 1794] | 30 | 60 | 90 | 0 | 0 | 10 | 30 | 50 | 80 | 0 | 0 | 80 | 0 | 40 | 80 | 0 | 0 | 0 | 0 | 60 | pest or weed control at 250 g/ha [7]: 80%; pest or weed control at 15.625 g/ha [8]: 20%; pest or weed control at 62.5 g/ha [8]: 50%; pest or weed control at 250 g/ha [8]: 70%; plant injury at 15.625 g/ha (corn (Zea mays) [9]): 20%; plant injury at 62.5 g/ha (corn (Zea mays) [9]): 50%; plant injury at 250 g/ha (corn (Zea mays) [9]): 70%; pest or weed control at 15.625 g/ha [10]: 0%; pest or weed control at 62.5 g/ha [10]: 40%; pest or weed control at 250 g/ha [10]: 70%; pest or weed control at 15.625 g/ha [11]: 0%; pest or weed control at 62.5 g/ha [11]: 40%; pest or weed control at 250 g/ha [11]: 70%; pest or weed control at 15.625 g/ha [12]: 0%; pest or weed control at 62.5 g/ha [12]: 0%; pest or weed control at 250 g/ha [12]: 10% |

Source: US12077503B2, “Substituted cyclic amides and their use as herbicides” (FMC CORPORATION, priority 2015, dated 2024)
